{"source": "patent EP1005865A1", "about": "“A anti-allergy anti-inflammatory composition comprising nimesulide and cetirizine” (priority 1998, dated 2000)", "key": {"[1]": {"system": "chronic hives patients", "details": "daily regimen of 10mg of cetirizine; cited from earlier work"}, "[2]": {"system": "Leukotriene D4 (LTD4) induced bronchoconstrictor in guinea pigs", "test": "Leukotriene D4-induced bronchospasm in guinea pig (insufflation pressure)", "details": "for % Insufflation pressure after LTD4 1 µg/kg LTD4: control 186.02 ± 52.58; for % Insufflation pressure after LTD4 2 µg/kg LTD4: control 246.56 ± 14.33; for decrease in % insufflation pressure, LTD4-induced bronchoconstriction: matches the 1 µg/kg LTD4 column of Table 3"}, "[3]": {"system": "Histamine induced bronchoconstrictor in guinea pigs", "test": "Histamine-induced bronchospasm in anaesthetised, ventilated guinea pig (insufflation pressure)", "details": "for Histamine Challenge (% Insufflation pressure) 5 µg/kg: histamine 5 µg/kg iv, control 187.42 ± 22.49; for Histamine Challenge (% Insufflation pressure) 10 µg/kg: histamine 10 µg/kg iv, control 239.07 ± 43.64"}, "[4]": {"system": "PDE IV", "details": "PDE IV inhibitor in vitro, reported; cited from earlier work"}, "[5]": {"system": "Antigen (egg albumin) induced bronchoconstrictor in guinea pigs", "test": "Egg albumin (antigen)-induced bronchospasm in sensitized guinea pig (insufflation pressure)", "procedure": "The animals were stabilized for 10 minutes.\nCetirizine was dissolved in deionized water. […] Histamine and d-tubocurarine chloride were dissolved in saline and Leukotriene D4 was diluted with Methanol and Ammonium Acetate buffer in a ratio of 70 : 30 at a pH of 5.4.\nGuinea pigs were sensitized by injections of 100 mg of Egg albumin ip and 100 mg Egg albumin sc in saline. Guinea pigs were used after day 21st."}, "[6]": {"details": "cited from earlier work"}, "[7]": {"details": "Cetrizine 1.16 mg/kg p.o 2 hours before challenge, n 1"}, "[8]": {"details": "Cetrizine 1.16 mg/kg p.o 2 hours before challenge"}, "[9]": {"details": "Nimesulide 11.66 mg/kg p.o 2 hours before challenge"}, "[10]": {"details": "Nimesulide 23.32 mg/kg p.o 2 hours before challenge"}}, "note": "Counter-ions that a name gives are not always drawn.", "data": [{"smiles": "O=C(O)COCCN1CCN(C(c2ccccc2)c2ccc(Cl)cc2)CC1", "note": "(centres unmarked) [Cetrizine, Cetirizine dihydrochloride]", "values": [{"measurement": "chronic hives patients reporting excellent results", "setting": "[1]", "result": "~70", "unit": "%"}, {"measurement": "% Insufflation pressure after LTD4 1 µg/kg LTD4", "setting": "[2]; [7]", "result": 57.14, "unit": "%"}, {"measurement": "% Insufflation pressure after LTD4 2 µg/kg LTD4", "setting": "[2]; [7]", "result": 92.85, "unit": "%"}, {"measurement": "effect on LTD4-induced contractions", "setting": "[2]; Cetirizine 1.16 mg/kg", "result": "significantly blocked"}, {"measurement": "decrease in % insufflation pressure, LTD4-induced bronchoconstriction", "setting": "[2]; Cetirizine 1.16 mg/kg p.o", "result": 42.86, "unit": "%"}, {"measurement": "decrease in % insufflation pressure, histamine induced bronchoconstriction", "setting": "[3]; Cetirizine 1.16 mg/kg p.o, matches the 5 µg/kg histamine column of Table 1", "result": 62.71, "unit": "%"}, {"measurement": "Histamine Challenge (% Insufflation pressure) 5 µg/kg", "setting": "[3]; [8]", "result": "37.29 ± 6.76", "unit": "%"}, {"measurement": "Histamine Challenge (% Insufflation pressure) 10 µg/kg", "setting": "[3]; [8]", "result": "68.35 ± 18.20", "unit": "%"}, {"measurement": "effect on histamine induced increase in insufflation pressure", "setting": "[3]; histamine 5 and 10 µg/kg, Cetirizine 1.66 mg/kg (so in the source)", "result": "significantly reduced"}]}, {"smiles": "CS(=O)(=O)Nc1ccc([N+](=O)[O-])cc1Oc1ccccc1", "note": "[Nimesulide]", "values": [{"measurement": "IC50", "setting": "[4]", "result": "~40", "unit": "µM"}, {"measurement": "% Insufflation pressure after LTD4 1 µg/kg LTD4", "setting": "[2]; [9]", "result": "192.45 ± 45.53", "unit": "%"}, {"measurement": "% Insufflation pressure after LTD4 1 µg/kg LTD4", "setting": "[2]; [10]", "result": "38.99 ± 19.79", "unit": "%"}, {"measurement": "% Insufflation pressure after LTD4 2 µg/kg LTD4", "setting": "[2]; [9]", "result": "197.02 ± 37.76", "unit": "%"}, {"measurement": "% Insufflation pressure after LTD4 2 µg/kg LTD4", "setting": "[2]; [10]", "result": "140.07 ± 61.15", "unit": "%"}, {"measurement": "effect on insufflation pressure, LTD4-induced contractions", "setting": "[2]; Nimesulide 11.66 mg/kg", "result": "no effect"}, {"measurement": "decrease in % insufflation pressure, LTD4-induced bronchoconstriction", "setting": "[2]; Nimesulide 23.32 mg/kg p.o", "result": 61.0, "unit": "%"}, {"measurement": "effect on LTD4-induced contractions", "setting": "[2]; double dose Nimesulide 23.32 mg/kg", "result": "potent inhibitory effect"}, {"measurement": "decrease in % insufflation pressure, egg albumin induced bronchoconstriction", "setting": "[5]; Nimesulide 11.66 mg/kg p.o, matches the 1 mg/kg egg albumin column of Table 2", "result": 90.24, "unit": "%"}, {"measurement": "effect on egg albumin induced insufflation pressure", "setting": "[5]; egg albumin 1 mg/kg, 2 mg/kg, Nimesulide 11.66 mg/kg", "result": "significantly reduced"}, {"measurement": "% Insufflation pressure after egg albumin challange 1 mg/kg", "setting": "[5]; sensitized guinea pigs, egg albumin 1 mg/kg, Nimesulide 11.66 mg/kg p.o, control 111.88 ± 10.53", "result": "9.76 ± 4.17", "unit": "%"}, {"measurement": "% Insufflation pressure after egg albumin challange 2 mg/kg", "setting": "[5]; sensitized guinea pigs, egg albumin 2 mg/kg, Nimesulide 11.66 mg/kg p.o, control 196.90 ± 32.98", "result": "19.39 ± 4.32", "unit": "%"}, {"measurement": "effect on histamine induced increase in insufflation pressure", "setting": "[3]; Nimesulide single dose, S, 11.66 mg/kg and double dose, D, 23.32 mg/kg", "result": "no significant inhibitory effect"}, {"measurement": "antihistaminic effect, histamine induced bronchoconstriction", "setting": "[3]; Nimesulide, dose not given", "result": "no antihistaminic effect"}, {"measurement": "Histamine Challenge (% Insufflation pressure) 5 µg/kg", "setting": "[3]; [9]", "result": "171.07 ± 23.76", "unit": "%"}, {"measurement": "Histamine Challenge (% Insufflation pressure) 5 µg/kg", "setting": "[3]; [10]", "result": "163.15 ± 43.27", "unit": "%"}, {"measurement": "Histamine Challenge (% Insufflation pressure) 10 µg/kg", "setting": "[3]; [9]", "result": "236.47 ± 40.40", "unit": "%"}, {"measurement": "Histamine Challenge (% Insufflation pressure) 10 µg/kg", "setting": "[3]; [10]", "result": "205.10 ± 31.33", "unit": "%"}]}, {"smiles": "O=C(O)c1cc(=O)c2c(OCC(O)COc3cccc4oc(C(=O)O)cc(=O)c34)cccc2o1", "note": "[cromolyn sodium]", "values": [{"measurement": "half-life", "setting": "[6]; inhaled, taken 4 times daily", "result": "45 to 100", "unit": "min"}, {"measurement": "fraction of an oral dose absorbed", "setting": "[6]; oral dose", "result": "about 1%"}]}]}
